Reference: US20160081978A1, “PHARMACEUTICAL COMPOSITION CONTAINING LIRIODENDRON TULIPIFERA L. EXTRACT FOR TREATING CHRONIC MYELOGENOUS LEUKEMIA” (CHO DANG PHARM. CO., LTD., priority 2013, published 2016)

How the values were obtained:
Test in all cases: XTT cell viability assay, inhibition of multiplication of leukemia cell line
Type in all cases: cell-based
Ba/F3 mother cell line = conditions: 1 mg/ml of CD-200, 1 μM of CD-EPT, 48 hours
Experimental: (§1) For measuring the cell viability indicating the inhibition of multiplication, in vitro XTT assay has been employed. […] To find out the selective inhibition of T315I enzyme variant from BCR-ABL fusion gene, the cell lines have been incubated for 48 hours at 37° C. After incubation, the sample has been treated with XTT formazan (WEL GENE) for 4 hours at 37° C. Finally, the cell viability has been measured using ELISA through the absorbance at 620 nm, 540 nm (FIG. 1).

Ba/F3(BCR/ABL) cell line = conditions: 1 mg/ml of CD-200, 1 μM of CD-EPT, 48 hours
Experimental: as §1

[1] = test system: Ba/F3 (BCR/ABL-T315I) cell line
Source text: For measuring the cell viability indicating the inhibition of multiplication, in vitro XTT assay has been employed. […] Finally, the cell viability has been measured using ELISA through the absorbance at 620 nm, 540 nm (FIG. 1).

In the case of C=C1C(=O)O[C@@H]2/C=C(\C)CC/C=C(\C)C[C@@H](OC(C)=O)[C@@H]12 [CD-EPT, epi-tulipinolide], the “inhibition of cell growth (cell viability)” value (shortened to “inhibition … (cell viability)”) (Ba/F3 mother cell line) is reported as “effectively inhibit the cell growth”, the “inhibition … (cell viability)” value (Ba/F3(BCR/ABL) cell line) is reported as “cannot significantly inhibit the cell growth” and the “inhibition of cell growth compared to Imatinib” value ([1]; 1 μM of Imatinib, 1 mg/ml of CD-200, 1 μM of CD-EPT, Ba/F3 (BCR/ABL-T315I) cell line) is reported as “effective inhibition of cell growth compared to Imatinib”. The “inhibition … (cell viability)” value ([1]; 1 mg/ml of CD-200, 1 μM of CD-EPT, 48 hours, XTT, Ba/F3 (BCR/ABL-T315I) cell line) was “effectively inhibit the cell growth”, the IC50 ([1]; Ba/F3 (BCR/ABL-T315I) mutant, XTT, 48 hours) was 800 nM and the “effective inhibition capability compared to Imatinib” value ([1]; Ba/F3 (BCR/ABL-T315I) mutant, from IC50 values) was 5 times.
